In experiment [1] the test system is human iPS cell Toe strain. Nature of the experiment: Effect to promote differentiation from human iPS cells into insulin-producing cells (insulin-positive cell rate, imaging). The settings on record: Homo sapiens, efficacy of 10 μM of the compound of Example 1 taken as 100%; 0.01 to 10 μM; read-out: E050. Type of experiment: cell-based. An excerpt: The evaluation system of the effect (efficacy) to promote differentiation from human iPS cells into insulin-producing cells was constructed with reference to known information (Non Patent Document 6). Further, the medium used in each differentiation stage was also produced with reference to known information (differentiation media A to E (Media A to E) described in Non Patent Document 6 were used respectively for stages 1 to 5; however, a medium free from GLP-1 receptor agonist and nicotinamide was used as differentiation medium E).
In order to evaluate the efficacy of each compound, the compound of Example 1 was used as a positive control, and dimethylsulfoxide (DMSO) (SIGMA, D2650) with a final concentration of 0.1% was used as a control untreated with compounds. […] In the following evaluation, the compound solutions were added to the medium to 0.1% that is the final concentration of DMSO. First, induction from human iPS cell Toe strain (National Institutes of Biomedical Innovation, Health and Nutrition) into cells on day 7 of culture (2 days after replacement with differentiation medium C (cells in the differentiation process from FOXA2-positive primitive gut tube cells into PDX1-positive pancreatic progenitor cells)) was performed according to the method of Non Patent Document 6 for “inducing differentiation from human iPS cells into pancreatic β cells”, and the cells were collected and thereafter stored in liquid nitrogen using Bambanker (NIPPON Genetics Co, Ltd.) at 1×10^7 cells/mL/tube, to produce a cell stock for evaluation. The cell stock was dissolved at the start of the evaluation of efficacy, suspended in differentiation medium C for stage 3 (DMEM high glucose (Life technologies, 11965092), 0.25 μM SANT-1, 0.1 μM LDN193189 (Stemgent, 04-0074), 10 μM SB431542, 2 μM Retinoic acid (Stemgent, 04-0021), 1% B27 serum free supplement (Life technologies, 17504044) and thereafter seeded in a 96-well plate (Corning, #3340) coated with Synthemax II (Corning, #5656) at 1×10^5 cells/well. After culturing for 2 days, the medium was removed, and new differentiation medium C for stage 3 with the compound or only DMSO added was added thereto at 100 μL/well. After culturing for 2 days, the medium was removed, and new differentiation medium D for stage 4 (DMEM high glucose, 0.1 μM LDN193189, 5 μM TGF-β type I receptor kinase inhibitor II (Calbiochem 616452), 0.3 μM (−)-indolactam V (Enzo life science ALX-420-011-C300), 1% B27 serum free supplement) with the compound or only DMSO added was added thereto at 100 μL/well. After culturing for 2 to 3 days, the medium was removed, and new differentiation medium E for stage 5 (GLP-1 receptor agonist and nicotinamide-free; Knockout […] (Life technologies, 12660012), 1% B27 serum free supplement) with the compound or only DMSO added was added thereto at 200 μL/well. After culturing for 2 days, the medium was removed, and a 4% paraformaldehyde phosphorus acid buffer (Wako, 163-20145) was added thereto at 150 μL/well and left standing for 30 to 60 minutes at room temperature to fix the cells. A phosphorus acid buffer (PBS) (Takara, T9181) containing 1% Triton X-100 (Sigma, T8787) was left standing for 15 minutes at room temperature, then washed with PBS-T (Takara, T9183), and was blocked for 1 hour using 20% Blocking One (Nacalai tesque, Tokyo, Japan) diluted with PBS-T at room temperature. After the removal of Blocking One, guinea pig anti-insulin antibody (Abcam, ab7842) diluted 200-fold with 20% Blocking One was added thereto at 50 μL/well, followed by standing at 4° C. overnight. After washing with PBS-T 3 times, […]-labeled anti-guinea pig antibody (Life Technologies, A11075) diluted 1000-fold with 20% Blocking One and 6-diamidino-2-phenylindole (DAPI) (Roche Diagnostics, Basel, Switzerland) were added thereto, followed by standing at room temperature for 2 hours. After washing with PBS-T 3 times, the fluorescence images of the cells were analyzed. […]

In experiment [2] the test system is ZDF disease rats. Kind of experiment: Glucose tolerance test after 4 weeks repeated oral administration in ZDF rats. It is filed as in vivo, rat. The settings on record: 10 mg/kg orally once a day for 4 weeks; Day 28; 60 minutes after 2 g/kg glucose loading minus before loading; male ZDF disease rats. How it is done:
After repeated oral administration of the compound according to Example 9 to 8 week-old male ZDF disease rats (CHARLES RIVER LABORATORIES JAPAN, INC.) for 4 weeks (from Day 1 to 28), a glucose tolerance test was conducted on Day 28 to investigate the effect to improve the pathological conditions of diabetes. On Day 0, the ZDF disease rats were subjected to measurement of blood sugar, insulin value, and body weight, as needed, and were grouped by multivariable block assignment. The experiments were conducted in a total of 3 groups of 4 male ZDF Lean rats (lean group), a group of 8 ZDF disease rats with a 0.5 w/v % methylcellulose 400 solution (which will be hereinafter referred to as 0.5% MC) administered (vehicle group), and a group of 8 ZDF disease rats with the compound of Example 9 administered (Example 9 group). The compound according to Example 9 was suspended in 0.5% MC and was orally administered 10 mg/kg once a day.
The glucose tolerance test was conducted as follows. […] Before the glucose loading and 60 minutes after the glucose loading, blood was collected from the tail vein, and the blood sugar was measured.
The blood sugar was measured using glucose C2-Test Wako (Cat No. 437-90902 for 700 times, available from Wako Pure Chemical Industries, Ltd).

The target of experiment [3] is T1, UCHL1 (Homo sapiens, UniProt P09936).
T1 sequence (P09936 1-223): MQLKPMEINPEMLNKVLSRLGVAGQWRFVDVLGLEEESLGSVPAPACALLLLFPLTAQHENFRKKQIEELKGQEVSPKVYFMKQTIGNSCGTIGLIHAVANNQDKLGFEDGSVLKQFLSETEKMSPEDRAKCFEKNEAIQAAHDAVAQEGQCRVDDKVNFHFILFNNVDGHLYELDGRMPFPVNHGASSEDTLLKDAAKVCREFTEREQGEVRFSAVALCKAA
Nature of the experiment: Evaluation of UCHL1 activation (ubiquitin-AMC hydrolysis). As to conditions: test compound 10 μM; control (DMSO) = 100; fluorescence increment 10 minutes to 2 hours; n=3.
Experimental: Using dimethylsulfoxide (DMSO) (SIGMA, D2650) as a control untreated with compounds (which will be hereinafter referred to as control), each test compound was dissolved in DMSO in use. DMSO and the test compound solutions were each added to the enzymatic reaction solution to a final concentration of 2%. […] The amount of fluorescence (excitation wavelength: 350 nm and fluorescence wavelength: 440 nm) of AMC generated due to hydrolysis of the fluorescence-labeled substrate was measured 10 minutes and 2 hours after the start of the enzymatic reaction, to calculate the increment in amount of fluorescence by subtraction between the two.
The amount of fluorescence of AMC was measured using Envision (PerkinElmer). The increment in amount of fluorescence of the control was taken as 100%, and the increment in amount of fluorescence of each test compound was expressed as a percentage (%) based on this, to obtain an enzymatic activity value. Enzymatic activity value (%)={(Amount of fluorescence increment of each test compound)/(Amount of fluorescence increment of control)}×100

Structures are written as SMILES.

In the case of `O=C1CCC(C(=O)Nc2ncc(-c3ccc(OC(F)(F)F)cc3)s2)n2cccc21` (stereo not drawn) [Example 9, 8-Oxo-N-[5-[4-(trifluoromethoxy)phenyl]thiazol-2-yl]-6,7-dihydro-5H-indolizine-5-carboxamide], the EC50 in experiment [1] was determined as 230 nM. Besides, the “Δ Plasma glucose” value in experiment [2] was -275.8 mg/dL. Moreover, the “Enzyme activity (c/o)” value in experiment [3] turned out to be 270 c/o.
